Experimental data published in US7029857B1, “Processes for obtaining compounds employing SNORF72 receptors” (H. Lundbeck A/S, priority 1999, dated 2006).
No end group written: not given here.

Tests used:
SNORF62 [1] = biological target: T1, SNORF62 (Homo sapiens, UniProt Q9HB89); assay: Calcium-activated Cl- currents in Xenopus oocytes injected with SNORF62 mRNA; type: cell-based; set-up: from linearized plasmids or PCR products containing the complete coding region of the gene; expressed in transfected cells; host or cells: Xenopus laevis oocytes injected with in vitro transcribed SNORF62 mRNA; details: 1 μM peptide, n=3
T1 sequence (Q9HB89 1-426): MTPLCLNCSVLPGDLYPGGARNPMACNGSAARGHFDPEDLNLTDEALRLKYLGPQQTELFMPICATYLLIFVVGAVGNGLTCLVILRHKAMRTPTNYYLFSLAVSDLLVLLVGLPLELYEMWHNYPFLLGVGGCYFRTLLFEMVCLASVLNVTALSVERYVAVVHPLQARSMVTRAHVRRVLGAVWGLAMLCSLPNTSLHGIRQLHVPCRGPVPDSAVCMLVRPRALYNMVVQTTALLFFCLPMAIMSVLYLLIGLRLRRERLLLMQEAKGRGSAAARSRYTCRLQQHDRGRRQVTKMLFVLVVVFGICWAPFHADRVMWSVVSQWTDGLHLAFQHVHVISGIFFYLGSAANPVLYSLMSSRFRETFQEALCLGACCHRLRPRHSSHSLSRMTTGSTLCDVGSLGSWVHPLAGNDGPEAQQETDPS
Experimental: Heterologous expression of GPCRs in Xenopus oocytes has been widely used to determine the identity of signaling pathways activated by agonist stimulation (Gundersen et al., 1983; Takahashi et al., 1987). Activation of the phospholipase C (PLC) pathway is assayed by applying a test compound in ND96 solution to oocytes previously injected with mRNA for the human SNORF62 and observing inward currents at a holding potential of approximately −80 mV. The appearance of currents that reverse at −25 mV and display other properties of the Ca^++-activated Cl^− channel is indicative of receptor-acitivation of PLC and release of IP3 and intracellular Ca^++.
In the present invention, oocytes were harvested from Xenopus laevis and injected with mRNA transcripts as previously described (Quick and Lester, 1994; Smith et al., 1997). SNORF62 mRNA transcript was synthesized using the T7 polymerase (“Message Machine”, Ambion) from linearized plasmids or PCR products containing the complete coding region of the gene. Oocytes were injected with 1–50 ng synthetic receptor RNA and incubated for 3–8 days at 17° C. Currents were recorded under dual electrode voltage clamp (Axon Instruments Inc.) with 3 M KCl-filled glass microelectrodes having resistances of 1–2 Mohm. Unless otherwise specified, oocytes were voltage clamped at a holding potential of −80 mV. […]

SNORF62 [2] = biological target: T1, SNORF62; assay: Inositol phosphate (IP) release in SNORF62-transfected COS-7 cells; type: cell-based; set-up: The SNORF62 cDNA codes for a protein of 426 amino acids; expressed in transfected cells; host or cells: COS-7 (transient, DEAE-dextran)
Experimental: Human SNORF62 receptor-mediated activation and human SNORF72 receptor-mediated activation of the inositol phosphate (IP) second messenger pathways were assessed by radiometric measurement of IP products.
For example, in a 96 well microplate format assay, COS-7 cells expressing the receptor of interest were plated at a density of 70,000 cells per well and allowed to incubate for 24 hours. The cells were then labeled with 0.5 μCi [^3H]myo-inositol overnight at 37° C., 5% CO2. Immediately before the assay, the medium was removed and replaced with 180 μL of Phosphate-Buffered Saline (PBS) containing 10 mM LiCl. The plates were then incubated for 20 min at 37° C., 5% CO2. Following the incubation, the cells were challenged with agonist (20 μl/well; 10× concentration) for 30 min at 37° C. The challenge was terminated by the addition of 100 μL of 5% v/v trichloroacetic acid, followed by incubation at 4° C. for greater than 30 minutes. Total IPs were isolated from the lysate by ion exchange chromatography. Briefly, the lysed contents of the wells were transferred to a Multiscreen HV filter plate (Millipore) containing Dowex AG1-X8 (200–400 mesh, formate form). The filter plates were prepared adding 100 μL of Dowex AG1-X8 suspension (50% v/v, water: resin) to each well. The filter plates were placed on a vacuum manifold to wash or elute the resin bed. Each well was first washed 2 times with 200 μl of 5 mM myo-inositol. Total [^3H]inositol phosphates were eluted with 75 μl of 1.2M ammonium formate/0.1M formic acid solution into 96-well plates. 200 μL of scintillation cocktail was added to each well, and the radioactivity was determined by liquid scintillation counting.

SNORF62 [3] = biological target: T1, SNORF62; assay: Intracellular Ca2+ release (FLIPR) in SNORF62-transfected COS-7 cells; type: cell-based; set-up: The SNORF62 cDNA codes for a protein of 426 amino acids; expressed in transfected cells; host or cells: COS-7 (transient, DEAE-dextran)
vector-transfected cells = assay: Intracellular Ca2+ release in vector (mock)-transfected COS-7 cells; type: cell-based; details: mock COS-7 cells
Experimental: A typical protocol for the DEAE-dextran method as applied to COS-7 and HEK293 cells is described as follows. Cells to be used for transfection are split 24 hours prior to the transfection to provide flasks which are 70–80% confluent at the time of transfection. Briefly, 8 μg of receptor DNA plus 8 μg of any additional DNA needed (e.g. Gα protein expression vector, reporter construct, antibiotic resistance marker, mock vector, etc.) are added to 9 ml of complete DMEM plus DEAE-dextran mixture (10 mg/ml in PBS). Cells plated into a T225 flask (sub-confluent) are washed once with PBS and the DNA mixture is added to each flask. The cells are allowed to incubate for 30 minutes at 37° C., 5% CO2. Following the incubation, 36 ml of complete DMEM with 80 μM chloroquine is added to each flask and allowed to incubate an additional 3 hours. The medium is then aspirated and 24 ml of complete medium containing 10% DMSO for exactly 2 minutes and then aspirated. […]
The compounds of interest are diluted in wash buffer (Hank's BSS (without phenol red), 20 mM HEPES, 2.5 mM probenecid) to a 4× final concentration and aliquoted into a clear v-bottom plate (Nunc). […] Compounds are added to the cell plates and responses are measured using the FLIPR™ instrument. The data are then collected and analyzed using the FLIPR™ software and Graphpad Prism. […]

SNORF72 = biological target: T2, SNORF72 (Homo sapiens, UniProt Q9GZQ4, A395T); assay: Intracellular Ca2+ release (FLIPR) in SNORF72-transfected COS-7 cells; type: cell-based; details: SNORF72-transfected COS-7 cells, peptides at 300 nM (FIG. 8)
T2 construct: expressed in transfected cells; host or cells: COS-7 (transient, DEAE-dextran)

control oocytes = assay: Cl- currents in control oocytes lacking injection of foreign mRNA; type: cell-based, Xenopus laevis
Experimental: In the present invention, oocytes were harvested from Xenopus laevis and injected with mRNA transcripts as previously described (Quick and Lester, 1994; Smith et al., 1997). SNORF62 mRNA transcript was synthesized using the T7 polymerase (“Message Machine”, Ambion) from linearized plasmids or PCR products containing the complete coding region of the gene. Oocytes were injected with 1–50 ng synthetic receptor RNA and incubated for 3–8 days at 17° C. Currents were recorded under dual electrode voltage clamp (Axon Instruments Inc.) with 3 M KCl-filled glass microelectrodes having resistances of 1–2 Mohm. Unless otherwise specified, oocytes were voltage clamped at a holding potential of −80 mV. During recordings, oocytes were bathed in continuously flowing (1–3 mL/min) medium containing 96 mM NaCl, 2 mM KCl, 1.8 mM CaCl2, 1 mM MgCl2, and 5 mM HEPES, pH 7.5 (ND96). Drugs were applied either by local perfusion from a 10 μL glass capillary tube fixed at a distance of 0.5 mm from the oocyte, or by switching from a series of gravity fed perfusion lines.

T2 sequence (Q9GZQ4 whole entry A395T): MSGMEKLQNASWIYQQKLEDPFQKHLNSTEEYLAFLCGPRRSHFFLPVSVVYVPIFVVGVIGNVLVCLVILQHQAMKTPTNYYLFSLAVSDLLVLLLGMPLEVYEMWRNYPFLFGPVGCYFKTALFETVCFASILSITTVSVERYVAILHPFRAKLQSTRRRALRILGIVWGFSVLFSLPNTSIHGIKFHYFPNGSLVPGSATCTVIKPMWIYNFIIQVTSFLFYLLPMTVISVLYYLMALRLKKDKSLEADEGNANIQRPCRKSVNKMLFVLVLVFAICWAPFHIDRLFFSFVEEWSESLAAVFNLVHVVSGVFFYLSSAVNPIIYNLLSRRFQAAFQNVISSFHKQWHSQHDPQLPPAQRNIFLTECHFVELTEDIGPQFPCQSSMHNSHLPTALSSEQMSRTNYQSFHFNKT

Substance: FRVDEEFQSPFASQSRGYFLFRPRN-NH2 [human NMU-25, FRVDEEFQSPFASQSRGYFLFRPRN—NH2]
- current amplitude (SNORF62 [1]): 1065±211 nA
- release of IP second messengers above basal (SNORF62 [2]): approximately 2 fold
- Ca2+ release response following pretreatment with pertussis toxin (SNORF62 [3]; pertussis toxin 100 ng/ml for 18-20 hours, n=2, data not shown): present
- EC50 (SNORF62 [3]; stimulation of Ca2+ release, SNORF62-transfected COS-7 cells, n = 2-7 (Table 1A)): 4 ± 1.3 nM
- effect on intracellular Ca2+ release in vector-transfected cells (vector-transfected cells): no significant effect
- stimulation of intracellular Ca2+ release (SNORF72): stimulated
- response in control oocytes (control oocytes): no response
